Measurements reported in patent publication US7446199B2, “Compositions useful as inhibitors of protein kinases” (Vertex Pharmaceuticals Incorporated, priority 2003, dated 2008).
Values joined by “and” are separate entries in the source; they are usually repeats but may differ in a detail not shown here. Equal entries are not always repeated.

Columns and labels:
[1] = target: T1, FLT-3 (Homo sapiens, UniProt P36888); assay: Inhibition of FLT-3, radiometric filter-binding assay; format: biochemical; conditions: 90 μM ATP, 0.5 mg/mL pE4Y, room temperature
T1 construct: 0.02% BSA and 3 nM FLT-3
T1 sequence (P36888 27-993): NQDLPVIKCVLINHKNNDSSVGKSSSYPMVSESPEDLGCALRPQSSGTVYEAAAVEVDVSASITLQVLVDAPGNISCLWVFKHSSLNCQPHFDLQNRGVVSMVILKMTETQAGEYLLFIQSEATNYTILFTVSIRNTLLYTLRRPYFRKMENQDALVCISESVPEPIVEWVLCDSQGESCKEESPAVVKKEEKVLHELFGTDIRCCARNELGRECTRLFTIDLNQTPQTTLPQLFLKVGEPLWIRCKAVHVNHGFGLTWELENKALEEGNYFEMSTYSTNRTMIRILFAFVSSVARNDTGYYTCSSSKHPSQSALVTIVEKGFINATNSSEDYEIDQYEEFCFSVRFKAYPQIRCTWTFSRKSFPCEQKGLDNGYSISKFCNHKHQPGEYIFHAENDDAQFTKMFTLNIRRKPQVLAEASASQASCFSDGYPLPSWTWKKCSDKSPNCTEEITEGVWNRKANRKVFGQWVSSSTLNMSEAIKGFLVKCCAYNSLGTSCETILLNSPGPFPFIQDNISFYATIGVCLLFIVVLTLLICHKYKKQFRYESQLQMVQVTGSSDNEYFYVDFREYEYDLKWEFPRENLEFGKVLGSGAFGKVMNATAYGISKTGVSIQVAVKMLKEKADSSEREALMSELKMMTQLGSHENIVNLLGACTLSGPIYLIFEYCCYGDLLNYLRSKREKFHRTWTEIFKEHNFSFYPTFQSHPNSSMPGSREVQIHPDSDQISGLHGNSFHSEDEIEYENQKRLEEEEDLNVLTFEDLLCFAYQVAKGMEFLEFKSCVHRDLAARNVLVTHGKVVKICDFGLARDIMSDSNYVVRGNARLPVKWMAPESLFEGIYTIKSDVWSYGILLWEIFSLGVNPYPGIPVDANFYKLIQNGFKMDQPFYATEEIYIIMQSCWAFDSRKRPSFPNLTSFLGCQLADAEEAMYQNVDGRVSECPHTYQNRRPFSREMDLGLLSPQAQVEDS
Procedure: Compounds were screened for their ability to inhibit FLT-3 activity using a radiometric filter-binding assay. This assay monitors the ^33P incorporation into a substrate poly(Glu, Tyr) 4:1 (pE4Y). Reactions were carried out in a solution containing 100 mM HEPES (pH 7.5), 10 mM MgCl2, 25 mM NaCl, 1 mM DTT, 0.01% BSA and 2.5% DMSO. Final substrate concentrations in the assay were 90 μM ATP and 0.5 mg/mL pE4Y (both from Sigma Chemicals, St Louis, Mo.). The final concentration of compounds is generally between 0.01 and 5 μM. Typically, a 12-point titration was conducted by preparing serial dilutions from 10 mM DMSO stock of test compound. Reactions were carried out at room temperature.
Two assay solutions were prepared. Solution 1 contains 100 mM HEPES (pH 7.5), 10 mM MgCl2, 25 mM NaCl, 1 mg/ml pE4Y and 180 μM ATP(containing 0.3 μCi of [γ-^33P]ATP for each reaction). Solution 2 contains 100 mM HEPES (pH 7.5), 10 mM MgCl2, 25 mM NaCl, 2 mM DTT, 0.02% BSA and 3 nM FLT-3. The assay was run on a 96 well plate by mixing 50 μL each of Solution 1 and […] of the test compounds. The reaction was initiated with Solution2. After incubation for 20 minutes at room temperature, the reaction was stopped with 50 μL of 20% TCA containing 0.4 mM of ATP. All of the reaction volume was then transferred to a filter plate and washed with 5% TCA by a Harvester9600 from TOMTEC (Hamden, Conn.). The amount of ^33P incorporation into pE4y was analyzed by a Packard TopCount Microplate Scintillation Counter (Meriden, Conn.). The data was fitted using Prism software to get an IC50 or Ki.

[2] = target: c-Met (Homo sapiens, UniProt P08581); assay: Ki determination for the inhibition of c-Met, coupled enzyme system; format: biochemical; conditions: 200 μM ATP, 10 μM polyGluTyr, 80 nM c-Met, 30° C.
Procedure, shortened: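 Coupled pyruvate kinase/lactate dehydrogenase NADH assay with 80 nM c-Met, 200 μM ATP, 10 μM polyGluTyr in pH 7.5 HEPES, 1.5% DMSO at 30° C. Compound (0.006–12.5 μM final, 12-point) preincubated 10 min; ATP started reaction, rates read over 10 min; Ki derived from rate versus inhibitor concentration.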

Chain of c-Met (P08581 25-1390): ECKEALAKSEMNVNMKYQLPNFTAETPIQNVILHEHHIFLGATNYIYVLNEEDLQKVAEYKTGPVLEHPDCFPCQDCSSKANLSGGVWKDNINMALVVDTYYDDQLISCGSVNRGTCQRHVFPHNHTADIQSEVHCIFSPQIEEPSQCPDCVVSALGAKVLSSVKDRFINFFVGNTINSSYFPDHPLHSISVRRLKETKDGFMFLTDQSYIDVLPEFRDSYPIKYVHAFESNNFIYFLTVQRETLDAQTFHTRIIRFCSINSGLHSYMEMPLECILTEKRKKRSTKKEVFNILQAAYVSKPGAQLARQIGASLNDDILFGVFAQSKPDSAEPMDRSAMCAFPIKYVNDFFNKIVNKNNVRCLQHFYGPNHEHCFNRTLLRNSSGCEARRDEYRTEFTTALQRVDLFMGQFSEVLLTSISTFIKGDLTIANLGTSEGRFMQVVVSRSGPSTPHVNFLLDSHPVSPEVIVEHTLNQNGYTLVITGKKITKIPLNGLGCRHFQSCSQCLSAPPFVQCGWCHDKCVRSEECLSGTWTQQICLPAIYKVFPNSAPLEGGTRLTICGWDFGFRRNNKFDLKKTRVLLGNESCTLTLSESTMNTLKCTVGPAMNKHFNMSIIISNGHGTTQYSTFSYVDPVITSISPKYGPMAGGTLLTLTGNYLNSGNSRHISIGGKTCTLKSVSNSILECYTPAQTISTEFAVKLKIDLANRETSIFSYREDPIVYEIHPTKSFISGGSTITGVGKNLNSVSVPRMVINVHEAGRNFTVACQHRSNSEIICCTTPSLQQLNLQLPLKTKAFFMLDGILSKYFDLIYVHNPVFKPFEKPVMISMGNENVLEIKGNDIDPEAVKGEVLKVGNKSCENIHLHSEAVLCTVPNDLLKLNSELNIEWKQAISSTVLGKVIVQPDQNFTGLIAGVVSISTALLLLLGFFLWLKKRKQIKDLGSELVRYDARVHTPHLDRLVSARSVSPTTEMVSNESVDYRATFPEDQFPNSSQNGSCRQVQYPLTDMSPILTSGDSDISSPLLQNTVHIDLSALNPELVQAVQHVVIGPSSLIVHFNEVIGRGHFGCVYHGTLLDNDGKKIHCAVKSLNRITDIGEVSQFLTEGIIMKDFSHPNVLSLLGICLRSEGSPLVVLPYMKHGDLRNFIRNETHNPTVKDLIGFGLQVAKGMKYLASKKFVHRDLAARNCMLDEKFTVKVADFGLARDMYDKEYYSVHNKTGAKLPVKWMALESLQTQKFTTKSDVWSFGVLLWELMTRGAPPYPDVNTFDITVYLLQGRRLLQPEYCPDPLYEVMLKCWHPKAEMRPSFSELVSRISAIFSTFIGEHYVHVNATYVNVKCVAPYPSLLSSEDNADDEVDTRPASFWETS

Ki [1]	Ki [2]	SMILES
200 to 1000 nM	200 to 1000 nM and 1000 to 12500 nM	CN1CCN(C(=O)[C@H]2C[C@H]2c2cnc3[nH]cc(-c4oncc4-c4cccc(F)c4F)c3c2)CC1 (relative stereo) [Compound 143, cis-(2-{3-[4-(2,3-Difluoro-phenyl)-isoxazol-5-yl]-1H-pyrrolo[2,3-b]pyridin-5-yl}-cyclopropyl)-(4-methyl-piperazin-1-yl)-methanone]
1000 to 12500 nM	< 200 nM	CN1CCC(c2cnc3[nH]cc(-c4oncc4-c4cccc(F)c4F)c3c2)CC1 [Compound 60, 3-[4-(2,3-Difluoro-phenyl)-isoxazol-5-yl]-5-(1-methyl-piperidin-4-yl)-1H-pyrrolo[2,3-b]pyridine]
200 to 1000 nM	< 200 nM	CN(C)c1cccc(-c2cnc3[nH]cc(-c4oncc4-c4cccc(F)c4F)c3c2)c1 [Compound 61, (3-{3-[4-(2,3-Difluoro-phenyl)-isoxazol-5-yl]-1H-pyrrolo[2,3-b]pyridin-5-yl}-phenyl)-dimethyl-amine]
200 to 1000 nM	< 200 nM	Fc1cccc(-c2cnoc2-c2c[nH]c3ncc(C4CCNCC4)cc23)c1F [Compound 62, 3-[4-(2,3-Difluoro-phenyl)-isoxazol-5-yl]-5-piperidin-4-yl-1H-pyrrolo[2,3-b]pyridine]
–	< 200 nM	O=c1ccc(-c2cnc3[nH]cc(-c4oncc4-c4cccc(F)c4F)c3c2)c[nH]1 [Compound 67, 5-{3-[4-(2,3-Difluoro-phenyl)-isoxazol-5-yl]-1H-pyrrolo [2,3-b]pyridin-5-yl}-1H-pyridin-2-one]
–	< 200 nM	CN(C)c1ccc(-c2cnc3[nH]cc(-c4oncc4-c4cccc(F)c4F)c3c2)cc1 [Compound 88, (4-{3-[4-(2,3-Difluoro-phenyl)-isoxazol-5-yl]-1H-pyrrolo[2,3-b]pyridin-5-yl}-phenyl)-dimethyl-amine]
–	< 200 nM	CS(=O)(=O)n1ccc2cc(-c3cnc4[nH]cc(-c5oncc5-c5cccc(F)c5F)c4c3)cnc21 [Compound 97, 3′-[4-(2,3-Difluoro-phenyl)-isoxazol-5-yl]-1-methanesulfonyl-1H, 1′H-[5,5′]bi[pyrrolo[2,3-b]pyridinyl]]
–	< 200 nM	Fc1cccc(-n2cnnc2-c2c[nH]c3ncc(-c4cccnc4)cc23)c1F [Compound 113, 3-[4-(2,3-Difluoro-phenyl)-4H-[1,2,4]triazol-3-yl]-5-pyridin-3-yl-1H-pyrrolo[2,3-b]pyridine]
–	< 200 nM	Fc1cccc(-n2cnnc2-c2c[nH]c3ncc(-c4ccncc4)cc23)c1F [Compound 114, 3-[4-(2,3-Difluoro-phenyl)-4H-[1,2,4]triazol-3-yl]-5-pyridin-4-yl-1H-pyrrolo[2,3-b]pyridine]
–	< 200 nM	Cc1noc(-c2c[nH]c3ncc(-c4ccc(N5CCN(C)CC5)cc4)cc23)c1-c1cccc(F)c1F [Compound 135, 3-[4-(2,3-Difluoro-phenyl)-3-methyl-isoxazol-5-yl]-5-[4-(4-methyl-piperazin-1-yl)-phenyl]-1H-pyrrolo[2,3-b]pyridine]
–	1000 to 12500 nM	O=c1[nH]ccc2c(-c3oncc3-c3cccc(F)c3F)c[nH]c12 [Compound 145, 3-[4-(2,3-Difluoro-phenyl)-isoxazol-5-yl]-1,6-dihydro-pyrrolo[2,3-c]pyridin-7-one]

More lines, now with the values behind:

SMILES	Ki [1]	Ki [2]
Fc1cccc(-c2cnoc2-c2c[nH]c3ncccc23)c1F [Compound 1, 3-[4-(2,3-Difluoro-phenyl)-isoxazol-5-yl]-1H-pyrrolo[2,3-b]pyridine]	200 to 1000 nM	< 200 nM
Clc1cccc(-c2cnoc2-c2c[nH]c3ncccc23)c1Cl [Compound 2, 3-[4-(2,3-Dichloro-phenyl)-isoxazol-5-yl]-1H-pyrrolo[2,3-b]pyridine]	1000 to 12500 nM	< 200 nM
Fc1cccc(Cc2cnoc2-c2c[nH]c3ncccc23)c1F [Compound 36, 3-[4-(2,3-Difluoro-benzyl)-isoxazol-5-yl]-1H-pyrrolo[2,3-b]pyridine]	1000 to 12500 nM	1000 to 12500 nM
Fc1cccc(-c2cnoc2-c2c[nH]c3ncc(Br)cc23)c1F [Compound 37, 5-Bromo-3-[4-(2,3-difluoro-phenyl)-isoxazol-5-yl]-1H-pyrrolo[2,3-b]pyridine]	–	< 200 nM
COc1cnc2[nH]cc(-c3oncc3-c3cccc(F)c3F)c2c1 [Compound 38, 3-[4-(2,3-Difluoro-phenyl)-isoxazol-5-yl]-5-methoxy-1H-pyrrolo[2,3-b]pyridine]	< 200 nM	< 200 nM
Fc1ccc(-c2cnoc2-c2c[nH]c3ncccc23)c(F)c1F [Compound 40, 3-[4-(2,3,4-Trifluoro-phenyl)-isoxazol-5-yl]-1H-pyrrolo [2,3-b]pyridine]	–	< 200 nM
Fc1c(Cl)cccc1-c1cnoc1-c1c[nH]c2ncccc12 [Compound 42, 3-[4-(3-Chloro-2-fluoro-phenyl)-isoxazol-5-yl]-1H-pyrrolo[2,3-b]pyridine]	1000 to 12500 nM	< 200 nM
Oc1cnc2[nH]cc(-c3oncc3-c3cccc(F)c3F)c2c1 [Compound 43, 3-[4-(2,3-Difluoro-phenyl)-isoxazol-5-yl]-1H-pyrrolo[2,3-b]pyridin-5-ol]	200 to 1000 nM	< 200 nM
c1cnc2[nH]cc(-c3oncc3C3CCCCC3)c2c1 [Compound 47, 3-(4-Cyclohexyl-isoxazol-5-yl)-1H-pyrrolo[2,3-b]pyridine]	200 to 1000 nM	1000 to 12500 nM
Oc1cnc2[nH]cc(-c3oncc3-c3cccc(Cl)c3Cl)c2c1 [Compound 48, 3-[4-(2,3-Dichloro-phenyl)-isoxazol-5-yl]-1H-pyrrolo[2,3-b]pyridin-5-ol]	200 to 1000 nM	< 200 nM
COc1cnc2[nH]cc(-c3oncc3-c3cccc(Cl)c3Cl)c2c1 [Compound 49, 3-[4-(2,3-Dichloro-phenyl)-isoxazol-5-yl]-5-methoxy-1H-pyrrolo[2,3-b]pyridine]	200 to 1000 nM	< 200 nM
CN(C)CC#Cc1cnc2[nH]cc(-c3oncc3-c3cccc(F)c3F)c2c1 [Compound 53, (3-{3-[4-(2,3-Difluoro-phenyl)-isoxazol-5-yl]-1H-pyrrolo[2,3-b]pyridin-5-yl}-prop-2-ynyl)-dimethyl-amine]	200 to 1000 nM	< 200 nM
CN(C)c1ccnc2[nH]cc(-c3oncc3-c3cccc(F)c3F)c12 [Compound 56, {3-[4-(2,3-Difluoro-phenyl)-isoxazol-5-yl]-1H-pyrrolo[2,3-b]pyridin-4-yl}-dimethyl-amine]	1000 to 12500 nM	1000 to 12500 nM
Fc1cccc(-c2cnoc2-c2c[nH]c3ncc(-c4ccncc4)cc23)c1F [Compound 57, 3-[4-(2,3-Difluoro-phenyl)-isoxazol-5-yl]-5-pyridin-4-yl-1H-pyrrolo[2,3-b]pyridine]	< 200 nM	< 200 nM
Fc1cccc(-c2cnoc2-c2c[nH]c3ncc(-c4ccccc4)cc23)c1F [Compound 58, 3-[4-(2,3-Difluoro-phenyl)-isoxazol-5-yl]-5-phenyl-1H-pyrrolo[2,3-b]pyridine]	200 to 1000 nM	< 200 nM
Fc1cccc(-c2cnoc2-c2c[nH]c3ncc(-c4cccnc4)cc23)c1F [Compound 59, 3-[4-(2,3-Difluoro-phenyl)-isoxazol-5-yl]-5-pyridin-3-yl-1H-pyrrolo[2,3-b]pyridine]	< 200 nM	< 200 nM
